US9296691B2, “Inhibitors of p75 receptor and their uses” (Horacio Uri Saragovi, priority 2010, dated 2016)

Experiments:
B104 cells = test: Pro-NTF killing assay (MTT), B104 cells; format: cell-based; details: pro-NTF 50 nM + I-B 20 μM, 72 hours
Description: The effect of I-B on the pro-apoptotic function of pro-NGF or pro-BDNF was tested in functional MTT assays measuring cell metabolism (FIG. 1B).
Cells (5,000 cells/well) were cultured in 96-well plates (Falcon, Lincoln Park, N.J.) in normal culture media (RPMI1640, Hepes, Glutamine, 5% serum). Wells were supplemented with NGF, BDNF, pro-NGF, or pro-BDNF (Alomone Labs) (50 nM final), in the presence or absence of I-B (20 μM final). Wells containing all culture conditions but no cells were used as blanks. The growth/survival profile of the cells was quantified using MTT (Sigma) 72 hours after plating. Optical density readings of MTT were done in a Benchmark Plus microplate Spectrophotometer (BioRad) at 595 nm with blanks subtracted.

[1] = test system: NGI (NFL-GCL-IPL) retinal layers; test: ON axotomy model, retinal NGI thickness by FD-OCT; format: in vivo; details: rat ON axotomy, 3 μg intravitreal immediately after axotomy, days 11 and 14, versus untreated axotomy
Description: Antagonists of p75NTR prevented loss of retinal structure after ON axotomy. The relative in vivo efficacy for I-B and LM-24 was tested using the ON axotomy model. A quantitative non-invasive structural endpoint, FD-OCT, was performed in the same animal over time to measure the integrity of the neuronal layers. We quantified the axons and fibers of the RGCs that contribute to the thickness of the Nerve Fiber Layer (NFL), the Ganglion Cell Layer (GCL), and the Inner Plexiform Layer (IPL), herein termed NGI. Maintenance of NGI structure correlates with RGC health (Bai et al., 2010a).
Wistar rats (female, 250-300 g; Charles River) were kept in a 12 hours dark-light cycle with food and water ad libitum. All animal manipulations were performed between 9 AM and 12 AM. […]
FD-OCT is a non-invasive method that allows time-kinetic studies in the same animal. […] In each B-scan the thickness of the NFL-GCL-IPL (NGI) was measured at four adjacent points at a distance 1.5 mm from the ON head. […]
(§1) For studies in the glaucoma animal model the injections were performed at days 14 and 21 after cauterization. […] Thus, in this paradigm there is pre-existing damage for 14 days before treatment (measured at ˜8% RGC death (Shi et al., 2007; Shi et al., 2008)); and the treatments require long-lived efficacy in the constant presence of retinal stress due to high IOP. […]

[2] = test system: retinal ganglion cells (RGCs); test: ON axotomy model, quantification of surviving RGCs (fluorogold labeled); format: in vivo; details: rat ON axotomy, one intravitreal injection 3 μg, day 14; contralateral normal eye = 100%; control axotomy 10%
Description: Wistar rats (female, 250-300 g; Charles River) were kept in a 12 hours dark-light cycle with food and water ad libitum. All animal manipulations were performed between 9 AM and 12 AM. Deep anesthesia was used during cauterization (induction of glaucoma), ON transection, fluorogold labeling, intraocular injection procedures, Optical Coherence Tomography measurements, and euthanasia (ketamine, xylazine, acepromazine injected intraperitoneally: 50/5/1 mg/kg, as per IACUC recommendations). For measuring IOP, light anesthesia was used (a gas mixture of Oxygen, 2% isofluorane mixture, at a rate of 2.5 liter/min, as per IACUC recommendations).
The ON axotomy model in the rat (Bai et al., 2010a) was used. […]
as §1
Quantification of labeled RGCs was performed as reported (Shi et al., 2007; Shi et al., 2008). […] Pictures for each freshly flat-mounted retina were taken using a Zeiss fluorescence microscope (Carl Zeiss Meditec, Jena, Germany), with 12 pictures/retina at 20× magnification. […]

CC(C)NC(=O)N(C(=O)Cn1cnc2c1c(=O)n(C)c(=O)n2C)C(C)C [I-B, 1,3-Diisopropyl-1-[2-(1,3-dimethyl-2,6-dioxo-1,2,3,6-tetrahydro-purin-7-yl)-acetyl]-urea]
cell viability (MTT) in presence of pro-NGF or pro-BDNF (B104 cells): prevented the loss of cell viability
preservation of NGI thickness (FD-OCT) [1]: significant preservation of the NGI thickness
RGCs surviving [2]: 37%
